Experimental data as given in ChEMBL document CHEMBL4411299, “A class of novel tubulin polymerization inhibitors exert effective anti-tumor activity via mitotic catastrophe” (Eur J Med Chem, 2019).
Active and inactive are the calls of the source. No cut-off for these calls is given here.

Experiments:
[1] = AUC (0 to t) in Sprague-Dawley rat at 1.5 mg/kg, iv administered as single dose by LC-MS/MS analysis; assay type: ADME, organism-based; conditions: in vivo
[2] = AUC (0 to infinity) in Sprague-Dawley rat at 1.5 mg/kg, iv administered as single dose by LC-MS/MS analysis; assay type: ADME, organism-based; design: dose 1.5 mg/kg, route intravenous, time infinity; conditions: in vivo
[3] = Toxicity in mouse xenografted with human HeLa cells assessed as effect on body weight at 5 to 20 mg/kg, iv administered every other day up to 20 days; assay type: organism-based; conditions: in vivo, 480 h
[4] = Stability in human liver microsomes assessed as parent compound remaining at 5 uM after 2 hrs in presence of NADPH regenerating system by LC-MS/MS analysis; assay type: ADME, Microsome
[5] = Clearance in male Sprague-Dawley rat at 1.5 mg/kg, iv administered as single dose by LC-MS/MS analysis; assay type: ADME, organism-based; conditions: in vivo
[6] = target: T1, Tubulin (Homo sapiens) (UniProt P68371+Q9H4B7+P0DPH7+P68366+Q13509+Q71U36+P04350+Q3ZCM7+P07437+P68363+Q9BQE3+Q6PEY2+Q13885+Q9BVA1+Q9BUF5); test: Inhibition of tubulin polymerization in human HeLa cells assessed as induction of shorter microtubule fibers at 0.02 uM after 12 hrs by DAPI staining-based confocal fluorescence microscopic analysis; assay type: cell-based
[7] = system: HeLa; test: Antitumor activity against human HeLa cells xenografted in nude mouse assessed as tumor weight at 5 mg/kg, iv administered every other day up to 20 days (reference value: 1.014 +/- 0.116g); assay type: functional
[8] = Half life in male Sprague-Dawley rat at 1.5 mg/kg, iv administered as single dose by LC-MS/MS analysis; assay type: ADME, organism-based; conditions: in vivo
[9] = MRT (0 to infinity) in male Sprague-Dawley rat at 1.5 mg/kg, iv administered as single dose by LC-MS/MS analysis; assay type: ADME, organism-based; conditions: in vivo
[10] = Half life in female Sprague-Dawley rat at 1.5 mg/kg, iv administered as single dose by LC-MS/MS analysis; assay type: ADME, organism-based; conditions: in vivo
[11] = MRT (0 to t) in male Sprague-Dawley rat at 1.5 mg/kg, iv administered as single dose by LC-MS/MS analysis; assay type: ADME, organism-based; conditions: in vivo
[12] = system: HeLa; test: Antiproliferative activity against human HeLa cells after 48 hrs by MTT assay; assay type: functional
[13] = system: HepG2; test: Antiproliferative activity against human HepG2 cells after 48 hrs by MTT assay; assay type: functional; conditions: HepG2, 48 h
[14] = system: HT-29; test: Antiproliferative activity against human HT-29 cells after 48 hrs by MTT assay; assay type: functional; conditions: HT-29, 48 h
[15] = AUC (0 to infinity) in male Sprague-Dawley rat at 1.5 mg/kg, iv administered as single dose by LC-MS/MS analysis; assay type: ADME, organism-based; design: dose 1.5 mg/kg, time infinity, route intravenous; conditions: in vivo
[16] = target: T1, Tubulin (Homo sapiens); test: Inhibition of tubulin polymerization in human HeLa cells assessed as induction of multinuclear giant cells at 0.05 after 12 hrs by DAPI staining-based confocal fluorescence microscopic analysis; assay type: cell-based
[17] = system: HeLa; test: Induction of apoptosis in human HeLa cells assessed as viable cells at 0.05 uM after 24 hrs by Annexin V-FITC/propidium iodide staining-based flow cytometric analysis (reference value: 92.8%); assay type: functional; conditions: read-out: Activity
[18] = Clearance in Sprague-Dawley rat at 1.5 mg/kg, iv administered as single dose by LC-MS/MS analysis; assay type: ADME, organism-based; conditions: in vivo
[19] = system: HeLa; test: Induction of apoptosis in human HeLa cells assessed as increase in cleaved PARP level at 0.02 to 0.1 uM after 24 hrs by Western blot analysis; assay type: functional, cell-based
[20] = Toxicity in mouse xenografted with human HeLa cells assessed as change in spleen weight at 5 to 20 mg/kg, iv administered every other day up to 20 days; assay type: organism-based; conditions: in vivo, 480 h
[21] = target: T1, Tubulin (Homo sapiens); test: Inhibition of tubulin polymerization in human HeLa cells assessed as induction of microtubule fiber breakdown at 0.02 uM after 12 hrs by DAPI staining-based confocal fluorescence microscopic analysis; assay type: cell-based
[22] = Half life in monkey liver microsomes at 5 uM in presence of NADPH regenerating system by LC-MS/MS analysis; assay type: ADME, Macaca mulatta, Microsome; conditions: rhesus monkey
[23] = system: HeLa; test: Cell cycle arrest in human HeLa cells assessed as reduction in accumulation of cells at S phase up to 0.4 uM after 24 hrs by propidium iodide staining-based flow cytometric analysis; assay type: functional
[24] = MRT (0 to t) in female Sprague-Dawley rat at 1.5 mg/kg, iv administered as single dose by LC-MS/MS analysis; assay type: ADME, organism-based; conditions: in vivo
[25] = system: HeLa; test: Inhibition of colony formation in human HeLa cells at 0.1 uM after 2 weeks by crystal violet staining-based assay relative to control; assay type: functional; conditions: 336 h
[26] = target: T1, Tubulin (Homo sapiens); test: Inhibition of tubulin polymerization in human HeLa cells assessed as multipolar spindle formation at 0.02 after 12 hrs by DAPI staining-based confocal fluorescence microscopic analysis; assay type: cell-based
[27] = AUC (0 to t) in female Sprague-Dawley rat at 1.5 mg/kg, iv administered as single dose by LC-MS/MS analysis; assay type: ADME, organism-based; conditions: in vivo
[28] = system: HeLa; test: Inhibition of colony formation in human HeLa cells after 2 weeks by crystal violet staining-based assay; assay type: functional, cell-based
[29] = system: HeLa; test: Antitumor activity against human HeLa cells xenografted in nude mouse assessed as tumor weight at 10 mg/kg, iv administered every other day up to 20 days (reference value: 1.014 +/- 0.116g); assay type: functional
[30] = system: HeLa; test: Induction of apoptosis in human HeLa cells assessed as late apoptotic cells at 0.1 uM after 24 hrs by Annexin V-FITC/propidium iodide staining-based flow cytometric analysis (reference value: 3.51%); assay type: functional
[31] = MRT (0 to infinity) in female Sprague-Dawley rat at 1.5 mg/kg, iv administered as single dose by LC-MS/MS analysis; assay type: ADME, organism-based; conditions: in vivo
[32] = Toxicity in mouse xenografted with human HeLa cells assessed as change in liver weight at 5 to 20 mg/kg, iv administered every other day up to 20 days; assay type: organism-based; conditions: in vivo, 480 h
[33] = system: HeLa; test: Antitumor activity against human HeLa cells xenografted in nude mouse assessed as tumor growth inhibition administered intravenously every other day up to 20 days; assay type: functional, cell-based
[34] = Half life in human liver microsomes at 5 uM in presence of NADPH regenerating system by LC-MS/MS analysis; assay type: ADME, Microsome
[35] = system: HeLa; test: Induction of apoptosis in human HeLa cells assessed as early apoptotic cells at 0.1 uM after 24 hrs by Annexin V-FITC/propidium iodide staining-based flow cytometric analysis (reference value: 3.65%); assay type: functional
[36] = system: HeLa; test: Antitumor activity against human HeLa cells xenografted in nude mouse assessed as tumor weight at 20 mg/kg, iv administered every other day up to 20 days (reference value: 1.014 +/- 0.116g); assay type: functional
[37] = Apparent volume of distribution in Sprague-Dawley rat at 1.5 mg/kg, iv administered as single dose by LC-MS/MS analysis; assay type: ADME, organism-based; conditions: in vivo, read-out: Vd(app)
[38] = system: HeLa; test: Induction of apoptosis in human HeLa cells assessed as early apoptotic cells at 0.05 uM after 24 hrs by Annexin V-FITC/propidium iodide staining-based flow cytometric analysis (reference value: 3.65%); assay type: functional

Compound: COC(=O)N1N=C(c2cccc(C)c2)CC1c1cc(OC)c(OC)c(OC)c1 (stereo not drawn)
- AUC(0-t) [1]: 397 ng·h/mL
- AUC(0-inf) [2]: 414 ng·h/mL
- Activity [3]: Non-Toxic
- Stability [4]: 31.1%
- clearance [5]: 51 mL/min/kg
- Activity [6]: Active
- Activity [7]: 0.812 g
- half-life [8]: 52.2 min
- MRT inf [9]: 60 min
- half-life [10]: 55.8 min
- MRT last [11]: 51 min
- GI50 [12]: 50 nM
- GI50 [13]: 980 nM
- GI50 [14]: 100 nM
- AUC(0-inf) [15]: 491 ng·h/mL
- Activity [16]: Active
- viability at 0.05 µM [17]: 84.4%
- clearance [18]: 65.3 mL/min/kg
- Activity [19]: Active
- Activity [20]: Non-Toxic
- Activity [21]: Active
- half-life at 5 µM [22]: 123 min
- Activity [23]: Active
- MRT last [24]: 57.6 min
- inhibition at 0.1 µM [25]: ≤ 80%
- Activity [26]: Active
- AUC(0-t) [27]: 319 ng·h/mL
- inhibition [28]: Dose-dependent effect
- Activity [29]: 0.631 g
- Activity [30]: 6.03%
- MRT inf [31]: 70.8 min
- Activity [32]: Non-Toxic
- TGI [33]: Dose-dependent effect
- t1/2 [34]: 170.73 min
- Activity [35]: 17.3%
- Activity [36]: 0.266 g
- Vd [37]: 5.03 L/kg
- Activity [38]: 10.2%
